Data: PMC6116703, “Ethenesulfonyl fluoride derivatives as telomerase inhibitors: structure-based design, SAR, and anticancer evaluation in vitro” (Journal of Enzyme Inhibition and Medicinal Chemistry, 2018)
Read-outs that look alike come from different tables or passages of the source.

Key:
human melanoma cell A375 = assay: Cell proliferation (MTT) assay, A375; type: cell-based
Description: (§1) The antiproliferative activities evaluation was conducted by using a modified procedure as described in the literature. Briefly, target tumour cells were grown to log phase in RPMI 1640 medium supplemented with 10% fetal bovine serum. After diluting to 3 × 10^4 cells mL^−1 with the complete medium, 100 µL of the obtained cell suspension was added to each well of 96-well culture plates. The subsequent incubation was performed at 37 °C, 5% CO2 atmosphere for 24 h before subjecting to antiproliferation assessment. The tested samples at pre-set concentrations were added to six wells with Doxorubicin (AMD) co-assayed as a positive reference. After 48 h of exposure period, 25 µL of PBS containing 2.5 mg·mL^−1 of MTT was added to each well. After 4 h, the medium was replaced by 150 µL DMSO to dissolve the purple formazan crystals produced. The absorbance at 570 nm of each well was measured using an ELISA plate reader. The data represented the mean of three experiments in triplicate and were expressed as means ± SD using Student’s test.

[1] = test system: human breast cancer cell MDA-MB-231; assay: Cell proliferation (MTT) assay, MDA-MB-231; type: cell-based
Description: as §1

[2] = test system: human hepatoma cell SMMC-7721; assay: Cell proliferation (MTT) assay, SMMC-7721; type: cell-based; conditions: read-out: IC50 SMMC-7721
Description: as §1

[3] = test system: human gastric cancer cells SGC-7901; assay: Cell proliferation (MTT) assay, SGC-7901; type: cell-based; conditions: read-out: IC50 SGC-7901
Description: as §1

telomerase = target: T1, telomerase (Homo sapiens, UniProt O14746); assay: Telomerase activity TRAP-PCR-ELISA assay (A375 cell extract); type: biochemical; conditions: IC50 inhibitory activity against telomerase, TRAP-PCR-ELISA, A375 cells, 24 h treatment
T1 construct: endogenous in cells; host or cells: A375 human melanoma cells
T1 sequence (O14746 whole entry): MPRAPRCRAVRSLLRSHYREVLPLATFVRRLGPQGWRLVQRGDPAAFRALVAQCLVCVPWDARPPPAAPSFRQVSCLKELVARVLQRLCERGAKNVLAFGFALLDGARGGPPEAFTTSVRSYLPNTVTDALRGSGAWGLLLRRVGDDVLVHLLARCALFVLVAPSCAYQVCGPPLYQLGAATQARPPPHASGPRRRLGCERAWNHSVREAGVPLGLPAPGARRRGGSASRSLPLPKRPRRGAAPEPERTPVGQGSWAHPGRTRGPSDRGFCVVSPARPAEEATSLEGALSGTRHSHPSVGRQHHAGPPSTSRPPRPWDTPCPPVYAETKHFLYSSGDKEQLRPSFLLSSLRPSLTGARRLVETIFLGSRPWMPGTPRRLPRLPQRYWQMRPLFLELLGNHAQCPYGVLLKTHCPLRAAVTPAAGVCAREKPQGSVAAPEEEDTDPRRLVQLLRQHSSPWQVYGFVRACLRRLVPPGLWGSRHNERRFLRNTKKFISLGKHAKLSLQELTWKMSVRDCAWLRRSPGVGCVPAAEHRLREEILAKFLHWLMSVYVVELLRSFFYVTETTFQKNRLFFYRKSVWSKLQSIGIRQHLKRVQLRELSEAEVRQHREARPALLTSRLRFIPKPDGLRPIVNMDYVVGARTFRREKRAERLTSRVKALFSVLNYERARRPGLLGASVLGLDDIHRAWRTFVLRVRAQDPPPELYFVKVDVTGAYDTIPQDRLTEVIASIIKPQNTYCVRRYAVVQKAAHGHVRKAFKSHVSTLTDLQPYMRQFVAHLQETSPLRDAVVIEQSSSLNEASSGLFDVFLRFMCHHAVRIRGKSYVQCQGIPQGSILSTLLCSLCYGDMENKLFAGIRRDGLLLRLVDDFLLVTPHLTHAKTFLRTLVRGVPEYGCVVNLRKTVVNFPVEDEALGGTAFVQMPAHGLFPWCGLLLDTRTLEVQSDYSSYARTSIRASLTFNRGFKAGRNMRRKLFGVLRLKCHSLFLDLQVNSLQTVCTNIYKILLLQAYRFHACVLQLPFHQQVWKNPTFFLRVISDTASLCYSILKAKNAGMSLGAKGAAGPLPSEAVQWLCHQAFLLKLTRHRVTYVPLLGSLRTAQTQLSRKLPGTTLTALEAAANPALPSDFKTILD
Description: Thirty-six compounds were tested in a search for inhibitors of telomerase activity using the TRAP-PCR-ELISA assay. In detail, the A375 cells were firstly maintained in RPMI 1640 buffer (Hyclone, Miami, FL), supplemented with 10% fetal bovineserum (GIBCO, New York, NY), streptomycin (0.1 mg/mL) and penicillin (100 IU/mL) at 37 °C in a humidified atmosphere containing 5% CO2. After trypsinisation, 5 × 10^4 cultured cells in logarithmic growth were seeded into T25 flasks (Corning, New York, NY) and cultured to allow to adherence. […] After 24 h treatment, the cells were harvested by cell scraper orderly followed by washing once with PBS. The cells were lysed in 150 µL RIPA cell lysis buffer (Santa Cruz, Santa Cruz, CA), and incubated on ice for 30 min. The cellular supernatants were obtained via centrifugation at 12,000g for 20 min at 4 °C and stored at –80 °C. The TRAP-PCR-ELISA assay was performed using a telomerase detection kit (Roche, Basel, Switzerland) according to the manufacturer’s protocol. In brief, 2 µL of cell extracts were mixed with 48 µL TRAP reaction mixtures. TRAP primers and Taq polymerase are incubated at 25 °C for 30 min. PCR was then initiated at 94 °C, 120 s for predenaturation and performed using 35 cycles each consisting of 94 °C for 30 s, 50 °C for 30 s, 72 °C for 90 s. Then 20 µL of PCR products were hybridised to a digoxigenin (DIG)-labelled telomeric repeat specific detection probe. And the PCR products were immobilised via the biotin-labelled primer to a streptavidin-coated microtiter plate subsequently. The immobilised DNA fragments were detected with a peroxidase-conjugated anti-DIG antibody and visualised following the addition of the stop regent. The microtitre plate was assessed on TECAN Infinite M200 microplate reader (Mannedorf, Switzerland) at a wavelength of 490 nm, and the final value were presented as mean ± SD[23].

[4] = test system: human normal liver cell (L-02); assay: Proliferative inhibition assay of human normal cell L-02 (MTT); type: cell-based; conditions: normal liver cells
Description: as §1
(§2) In order to determine the selective cancer cell toxicity of some title compounds. We subsequently conducted a proliferative inhibition assay with human normal liver cell (L-02) and gastric mucosa cell (GES-1).

[5] = test system: gastric mucosa cell (GES-1); assay: Proliferative inhibition assay of human normal cell GES-1 (MTT); type: cell-based
Description: as §1, §2

[6] = test system: human gastric cancer cells MGC-803; assay: Cell proliferation (MTT) assay, MGC-803; type: cell-based; conditions: read-out: IC50 MGC-803
Description: as §1

[7] = antiproliferative, MTT, 48 h exposure, read-out: IC50 A375
[8] = antiproliferative, MTT, 48 h exposure, read-out: IC50 MDA-MB-231
[9] = antiproliferative, MTT, 48 h exposure
[10] = Homo sapiens, A-375, 48 h, read-out: IC50 A375, antiproliferative, MTT, 48 h exposure
[11] = Homo sapiens, MDA-MB-231, 48 h, read-out: IC50 MDA-MB-231, antiproliferative, MTT, 48 h exposure
[12] = read-out: IC50 A375, antiproliferative, MTT, 48 h exposure
[13] = Homo sapiens, GES1, normal gastric mucosa cells

CC(C)(C)c1ccc(/C=C/C=C/S(=O)(=O)F)cc1 [Compound 50]
IC50 (human melanoma cell A375; [7]): 20.7 ± 1.39 µM | IC50 [1, 8]: 31.6 ± 1.2 µM | IC50 [2, 9]: 29.1 ± 1.27 µM | IC50 [3, 9]: 26.9 ± 0.56 µM

COc1cc(/C=C/C=C/S(=O)(=O)F)cc(OC)c1 [Compound 56]
IC50 (human melanoma cell A375; [10]): 6.92 ± 0.44 µM | IC50 [1, 11]: 12.2 ± 0.92 µM | IC50 ([2]; Homo sapiens, SMMC-7721, 48 h): 19.3 ± 0.82 µM | IC50 ([3]; Homo sapiens, SGC-7901, 48 h): 34.5 ± 1.04 µM | IC50 (telomerase): 3.2 ± 0.55 µM

O=S(=O)(F)/C=C/C=C/c1ccc(/C=C/S(=O)(=O)F)cc1 [Compound 57, (1E,3E)-4-(4-((E)-2-(fluorosulfonyl)vinyl)phenyl)buta-1,3-diene-1-sulfonyl fluoride]
IC50 (human melanoma cell A375; [10]): ~3 µM | IC50 (human melanoma cell A375; [12]): 1.58 ± 0.06 µM | IC50 [1, 11]: 3.22 ± 0.18 µM | IC50 ([4]; Homo sapiens): < 2000 µM | IC50 [4]: 2010 ± 160 µM | IC50 [5, 13]: < 2000 µM | IC50 ([5]; normal gastric mucosa cells): 2190 ± 180 µM | IC50 (telomerase): 0.97 ± 0.12 µM

Cc1ccc(S(=O)(=O)n2cc(/C=C/S(=O)(=O)F)cn2)cc1 [Compound 61]
IC50 (human melanoma cell A375; [10]): 27.3 ± 1 µM | IC50 [1, 11]: 26.9 ± 1.2 µM | IC50 ([2]; Homo sapiens, SMMC-7721, 48 h): 28.2 ± 1.49 µM | IC50 ([6]; Homo sapiens, MGC-803, 48 h): 27.1 ± 1.03 µM

CS(=O)(=O)c1ccc(/C=C/S(=O)(=O)F)cc1 [Compound 66]
IC50 (human melanoma cell A375; [7]): 8.56 ± 0.49 µM | IC50 [1, 8]: 30.3 ± 1.22 µM | IC50 [2, 9]: 52 ± 1.7 µM | IC50 [6, 9]: 19.6 ± 1.17 µM

COc1cc(/C=C/S(=O)(=O)F)cc(OC)c1 [Compound 67]
IC50 (human melanoma cell A375; [10]): 8.29 ± 0.42 µM | IC50 [1, 11]: 12.1 ± 0.37 µM | IC50 ([2]; Homo sapiens, SMMC-7721, 48 h): 15 ± 0.6 µM | IC50 ([3]; Homo sapiens, SGC-7901, 48 h): 50.3 ± 1.17 µM | IC50 ([6]; Homo sapiens, MGC-803, 48 h): 16.1 ± 0.82 µM | IC50 (telomerase): 1.87 ± 0.47 µM

O=S(=O)(F)/C=C/c1cc(Cl)cc(Cl)c1 [Compound 69]
IC50 (human melanoma cell A375; [10]): 8.79 ± 0.61 µM | IC50 [1, 11]: 7.95 ± 0.4 µM | IC50 ([2]; Homo sapiens, SMMC-7721, 48 h): 11.5 ± 0.39 µM | IC50 ([3]; Homo sapiens, SGC-7901, 48 h): 36.8 ± 1.25 µM | IC50 ([6]; Homo sapiens, MGC-803, 48 h): 25.1 ± 0.54 µM | IC50 (telomerase): 4.22 ± 0.71 µM

O=S(=O)(F)/C=C/c1cccc(/C=C/S(=O)(=O)F)c1 [Compound 70]
IC50 (human melanoma cell A375; [10]): ~3 µM | IC50 (human melanoma cell A375; [12]): 3.09 ± 0.19 µM | IC50 [1, 11]: 4.22 ± 0.2 µM | IC50 ([2]; Homo sapiens, SMMC-7721, 48 h): 3 ± 0.18 µM | IC50 ([3]; Homo sapiens, SGC-7901, 48 h): 5.38 ± 0.3 µM | IC50 ([6]; Homo sapiens, MGC-803, 48 h): 3.15 ± 0.27 µM | IC50 (telomerase): 1.01 ± 0.13 µM

COc1ccc(Cl)cc1/C=C/S(=O)(=O)F [Compound 71]
IC50 (human melanoma cell A375; [10]): 8.65 ± 0.33 µM | IC50 [1, 11]: 8.09 ± 0.52 µM | IC50 ([2]; Homo sapiens, SMMC-7721, 48 h): 23.2 ± 0.78 µM | IC50 ([6]; Homo sapiens, MGC-803, 48 h): 20.8 ± 0.79 µM | IC50 (telomerase): 6.08 ± 1.3 µM

O=S(=O)(F)/C=C/c1cccc(I)c1 [Compound 72]
IC50 (human melanoma cell A375; [7]): 13 ± 0.77 µM | IC50 [1, 8]: 22.6 ± 1 µM | IC50 [2, 9]: 16.1 ± 0.91 µM | IC50 [6, 9]: 44.9 ± 1.13 µM

CC(C)c1cccc(/C=C/S(=O)(=O)F)c1 [Compound 74]
IC50 (human melanoma cell A375; [7]): 26.8 ± 1.22 µM | IC50 [1, 8]: 34.7 ± 1.2 µM | IC50 [3, 9]: 31.8 ± 0.82 µM | IC50 [6, 9]: 35.3 ± 1.25 µM

O=S(=O)(F)/C=C/c1cccc(-c2ccccc2)c1 [Compound 75]
IC50 (human melanoma cell A375; [10]): 9.27 ± 0.91 µM | IC50 [1, 11]: 21.3 ± 1.04 µM | IC50 ([2]; Homo sapiens, SMMC-7721, 48 h): 32.1 ± 1.02 µM | IC50 ([3]; Homo sapiens, SGC-7901, 48 h): 21.9 ± 0.61 µM | IC50 ([4]; Homo sapiens): 2440 ± 220 µM | IC50 [5, 13]: 1890 ± 170 µM | IC50 (telomerase): 4.4 ± 2 µM

O=S(=O)(F)/C=C/c1ccccc1Br [Compound 76]
IC50 (human melanoma cell A375; [7]): 18 ± 1.09 µM | IC50 [1, 8]: 36 ± 1.2 µM | IC50 [3, 9]: 50.2 ± 1.79 µM

CCOC(=O)c1cccc(/C=C/S(=O)(=O)F)c1 [Compound 77]
IC50 (human melanoma cell A375; [7]): 13.7 ± 1.29 µM | IC50 [1, 8]: 19.4 ± 0.79 µM | IC50 [2, 9]: 23.6 ± 1.45 µM | IC50 [6, 9]: 51.8 ± 0.87 µM

O=S(=O)(F)/C=C/c1cc(Cl)nc(Cl)c1 [Compound 80]
IC50 ([3]; Homo sapiens, SGC-7901, 48 h): 26.8 ± 1.01 µM | IC50 (telomerase): 49.3 ± 2.55 µM
